Reference: the NIST ThermoML archive (doi:10.1016/j.fluid.2007.09.028)

Assay: xn = mol fraction of the nth substance listed
Conditions: 101 kPa, Liquid

Clc1ccccc1 [chlorobenzene] + CC(C)(C)O
mass density [kg/m3]
Conditions | 303.15 K | 308.15 K | 313.15 K | 318.15 K | 323.15 K
x2 = 0 | 1095.64 | 1090.23 | 1084.82 | 1079.42 | 1073.97
x2 = 0.0514 | 1078.9 | 1073.42 | 1067.94 | 1062.44 | 1056.94
x2 = 0.1001 | 1063.67 | 1058.13 | 1052.58 | 1047.01 | 1041.43
x2 = 0.1498 | 1048.32 | 1042.74 | 1037.14 | 1031.52 | 1025.89
x2 = 0.199 | 1033.1 | 1027.51 | 1021.89 | 1016.24 | 1010.56
x2 = 0.2505 | 1017.18 | 1011.59 | 1005.96 | 1000.3 | 994.615
x2 = 0.3 | 1001.8 | 996.225 | 990.603 | 984.94 | 979.276
x2 = 0.351 | 985.908 | 980.337 | 974.721 | 969.053 | 963.346
x2 = 0.3707 | 979.707 | 974.152 | 968.545 | 962.885 | 957.187
x2 = 0.3997 | 970.62 | 965.075 | 959.477 | 953.823 | 948.132
x2 = 0.45 | 954.724 | 949.206 | 943.631 | 937.997 | 932.311
x2 = 0.5 | 938.79 | 933.303 | 927.755 | 922.142 | 916.464
x2 = 0.5499 | 922.845 | 917.39 | 911.872 | 906.286 | 900.633
x2 = 0.6003 | 906.668 | 901.248 | 895.76 | 890.201 | 884.578
x2 = 0.6499 | 890.559 | 885.172 | 879.716 | 874.189 | 868.592
x2 = 0.7002 | 874.261 | 868.904 | 863.477 | 857.976 | 852.408
x2 = 0.7482 | 858.49 | 853.167 | 847.772 | 842.3 | 836.757
x2 = 0.7998 | 841.567 | 836.267 | 830.896 | 825.45 | 819.931
x2 = 0.8498 | 825.04 | 819.768 | 814.423 | 809 | 803.512
x2 = 0.9004 | 808.338 | 803.082 | 797.754 | 792.35 | 786.87
